# Source: patent US20140296153A1, “Oligodendrocyte Differentiation” (priority 2011, published 2014)
# Legend:
# Olig2 = assay: Western blotting analysis of Olig2; format: cell-based, mouse; details: 7 days, n=8
# Protocol: Western blotting analysis of Olig2 was performed from 6- to 8-days-old neurospheres that were plated onto six-well plates previously coated with poly-D-lysine, and that were allowed to adhere for 48 h in the presence of SFM, and treated in the absence (control) or in the presence of Hp and/or AM251 for 7 days. For the evaluation of Olig2 protein levels in control versus Hp-treated condition, the medium was renewed after 48 h. Seven days after the first treatment, the cells were washed with 0.15M phosphate-buffered saline (PBS) and harvested by scraping in the lysis buffer [0.15 M NaCl, 0.05 M Tris-base, 5 mM EGTA, 1% Triton X-100, 0.5% DOC, 0.1% SDS, 10 mM dithiothreitol (DTT), containing a protease inhibitor cocktail tablet (Roche Diagnostics GmbH, Germany), pH7.4 at 4° C.].
# The supernatant was collected after centrifugation at 14 000 rpm for 10 min, at 4° C. Protein concentration was measured by the BCA method and samples were treated with SDS-PAGE sample buffer [6× concentrated: 350 mM Tris, 10% (w/v) SDS, 30% (v/v) glycerol, 0.6 M DTT, 0.06% (w/v) bromophenol blue], boiled 5 min at 95° C., and stored at −20° C. until use for Western blotting analysis. […]
# CB1R = CB1R (Homo sapiens, UniProt P21554); details: cited from earlier work
# SVZ cells [1] = assay: SVZ self-renewal assay (secondary neurospheres); format: cell-based, mouse; details: primary neurospheres exposed to Hp 1 μM for 6 days, replated without Hp
# Protocol: Neurosphere forming and self-renewal assays were performed on SVZ cells seeded at clonal density, 2500 cells per well in 24-well cell culture plates in SFM containing 5 ng/ml EGF and 2.5 ng/ml FGF-2 and supplemented or not (control) with 1 μM Hp or 50 ng.ml^−1 hepatocyte growth factor (carrier free recombinant human HGF, R&D Systems, Lille, France). After 6 days, the numbers of primary neurospheres were determined. For self-renewal assay, neurospheres were collected, dissociated as single cells and seeded in SFM containing 5 ng/ml EGF and 2.5 ng/ml FGF-2 in 24 well plates. After 6 days, the number of secondary neurospheres was counted.
# For the SVZ neurosphere forming and self-renewal assays the experiments were replicated in five independent culture preparations and each experimental condition was assayed in four different coverslips.
# SVZ cells [2] = assay: BrdU cell proliferation study in SVZ cell cultures; format: cell-based, mouse; details: 48 hours, BrdU last 4 hours
# Protocol: SVZ cell cultures were obtained from early postnatal (P1-3) C57B1/6 donor mice as described previously.
# Brains were removed following decapitation and placed in HBSS solution (Gibco, Carlsbad, Calif., USA). Fragments of SVZ were dissected out of 450 μm thick coronal brain sections, digested in 0.025% trypsin and 0.265 mM EDTA (Gibco), and dissociated by gentle mixing. The cell suspension was diluted in serum-free culture medium (SFM) composed of Dulbecco's modified eagle medium (D-MEM/F12 Gluta-MAX™-I, Gibco) supplemented with 100 U/mL penicillin, 100 μg/mL streptomycin (Gibco), 1% B27 (Gibco), 10 ng/mL epidermal growth factor (EGF; Gibco), and 5 ng/mL basic fibroblast growth factor (FGF-2, Gibco). Single cells were then plated on uncoated Petri dishes at a density of 3000 cells/cm^2. […]
# Fluorescence images were recorded using an LSM 510 Meta confocal microscope or an Axioskop 2 Plus fluorescence microscope (both from Carl Zeiss). […] Percentages of TUNEL or BrdU immunoreactive cells in SVZ cell cultures were calculated from cell counts in five independent microscopic fields in each coverslip with a x40 objective (approximately 200 cells per field). […] For SCCl experiments, the percentage of oligodendrocytic-like responding cells (with a Thromb/Hist ratio above 1.3) was calculated on the basis of one microscopic field per coverslip, containing approximately 100 cells (magnification, ×40). […]
# Chain of CB1R (P21554 whole entry): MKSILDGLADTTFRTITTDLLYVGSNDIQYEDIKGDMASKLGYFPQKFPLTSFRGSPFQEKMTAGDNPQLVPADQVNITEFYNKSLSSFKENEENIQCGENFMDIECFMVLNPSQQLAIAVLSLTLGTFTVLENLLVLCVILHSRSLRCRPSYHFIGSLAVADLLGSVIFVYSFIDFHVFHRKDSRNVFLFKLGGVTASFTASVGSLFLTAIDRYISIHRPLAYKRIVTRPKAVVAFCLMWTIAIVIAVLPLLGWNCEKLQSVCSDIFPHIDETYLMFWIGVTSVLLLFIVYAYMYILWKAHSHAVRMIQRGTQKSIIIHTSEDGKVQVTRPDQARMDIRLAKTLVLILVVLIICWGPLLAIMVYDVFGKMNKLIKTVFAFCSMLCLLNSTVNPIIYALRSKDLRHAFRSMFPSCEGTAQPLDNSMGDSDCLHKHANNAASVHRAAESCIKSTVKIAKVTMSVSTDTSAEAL
smiles,measurement,setting,value
"CC(C)C[C@H](NC(=O)[C@H](Cc1ccccc1)NC(=O)[C@H](CCCCN)NC(=O)[C@H](Cc1ccccc1)NC(=O)[C@H](CC(N)=O)NC(=O)[C@@H](NC(=O)[C@@H]1CCCN1)C(C)C)C(=O)N[C@@H](CO)C(=O)N[C@@H](Cc1cnc[nH]1)C(=O)O [Hp, PVNFKFLSH]","Olig2 protein levels normalized to β-actin, relative to control (100%)",Olig2; Hp 100 nM,136.9±10.94%
same,"Olig2 protein levels normalized to β-actin, relative to control (100%)",Olig2; Hp 1 μM,158.7±23.62%
same,activity at CB1R cannabinoid receptors,CB1R,CB1R receptor selective antagonist
same,number of secondary neurospheres (control 100%),SVZ cells [1],125.5±13.38%
same,percentage of BrdU-positive cells,SVZ cells [2]; 1 μM,4.70±0.53%
same,percentage of BrdU-positive cells,SVZ cells [2]; Hp 100 nM,4.01±0.81%
